System: T98
Test: Ames testing
Type: cell-based
Conditions: T98 with S9 activation
Method: A60.7 (370 mg) was dissolved in trifluoroacetic acid and stirred at 50° C. for 2h and 45 min. then at 60° C. for 2 h, then overnight at room temperature. The solvent was removed under reduced pressure and co-evaporated with diethyl ether (2×). Ether (˜20 mL) was added and the mixture sonicated for 1 min. The crude product was collected by filtration and rinsed with an additional portion of ether and dried under vacuum to yield 130 mg of a pale yellow solid. The crude product was washed with several portions of saturated aqueous sodium bicarbonate then water and dried under vacuum. The crude product was purified by automated reverse phase HPLC. The appropriate fractions were combined and azeotroped with heptane to produce 43 mg of a pale yellow solid. The solid was treated with a few milliliters of saturated aqueous sodium bicarbonate solution rinsed with water and dried under vacuum over phosphorus pentoxide and subsequently rinsed with several portions of diethyl ether and dried to yield 36 mg of the desired product. (Caution: This material was subjected to Ames testing and found to be positive in T98 with S9 activation. Suitable precautions should be taken in handling this material) 1H NMR 400 MHz d^6DMSO δ: 8.26 s, 1H, 8.14-8.07 m, 2H, 7.62-7.53, m, 3H, 6.90-6.80, br s, 2H, 4.02, s, 3H.

Question: How did the Ames testing turn out when `Cn1cnc2c(N)nc3nc(-c4ccccc4)sc3c21` [Example A60, 8-methyl-2-phenyl-8H-imidazo[4,5-d]thiazolo[4,5-b]pyridin-5-amine] was run?
Answer: positive
